Assay results reported in patent US10508104B2, “6-hydroxy-5-(phenyl/heteroarylsulfonyl)pyrimidin-4(1H)-one as APJ agonists” (Bristol-Myers Squibb Company, priority 2016, dated 2019).
pEC50: −log10 of the molar value.

target: human APJ receptor (Homo sapiens (Human), UniProt P35414); experiment: Intracellular cAMP accumulation assay (APJ hcAMP, HTRF); type: cell-based; conditions: HEK293 cells stably expressing human APJ receptor; inhibition of forskolin-mediated cAMP production; read-out: Human APJ cAMP EC50 Potency range
Sequence (P35414 whole entry): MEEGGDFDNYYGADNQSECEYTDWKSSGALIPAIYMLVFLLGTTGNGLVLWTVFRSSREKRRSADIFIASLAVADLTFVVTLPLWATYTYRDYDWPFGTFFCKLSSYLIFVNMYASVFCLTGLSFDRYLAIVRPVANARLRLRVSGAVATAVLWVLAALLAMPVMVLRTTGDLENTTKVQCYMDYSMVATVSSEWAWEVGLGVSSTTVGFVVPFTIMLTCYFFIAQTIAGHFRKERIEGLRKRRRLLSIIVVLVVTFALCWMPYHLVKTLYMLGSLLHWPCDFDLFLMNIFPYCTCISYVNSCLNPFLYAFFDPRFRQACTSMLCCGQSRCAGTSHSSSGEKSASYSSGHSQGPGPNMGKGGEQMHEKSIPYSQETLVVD
In short: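 HEK293 cells stably expressing human APJ, 5,000 per well, incubated 30 min at rt with compound, […] and 2 μM forskolin. cAMP measured by HTRF against a cAMP standard curve as inhibition of forskolin-driven production. EC50 from variable-slope sigmoidal fit.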

pEC50, 8.00 to 11.00:
CCCCc1nc(=O)c(S(=O)(=O)C2CCN(C(=O)OC(C)(C)C)CC2)c(O)n1-c1c(OC)cccc1OC [Example 105, tert-Butyl 4-((2-butyl-1-(2,6-dimethoxyphenyl)-6-hydroxy-4-oxo-1,4-dihydropyrimidin-5-yl)sulfonyl)piperidine-1-carboxylate]
CCCCc1nc(=O)c(S(=O)(=O)c2ccc(-c3ccc(F)nc3C)cc2)c(O)n1[C@@H](CC)c1ccccc1F [Example 431, 2-butyl-5-[4-(6-fluoro-2-methylpyridin-3-yl)benzenesulfonyl]-1-[(1S)-1-(2-fluorophenyl)propyl]-6-hydroxy-1,4-dihydropyrimidin-4-one]
CCOCc1nc(=O)c(S(=O)(=O)c2ccc(-c3ccnc(F)c3C)cc2)c(O)n1[C@@H](COC)c1cc(F)cc(F)c1 [Example 388, 1-[(1R)-1-(3,5-difluorophenyl)-2-methoxyethyl]-2-(ethoxymethyl)-5-[4-(2-fluoro-3-methylpyridin-4-yl)benzenesulfonyl]-6-hydroxy-1,4-dihydropyrimidin-4-one]
COC[C@@H](c1ccccc1)n1c(COC(C)C)nc(=O)c(S(=O)(=O)c2ccc(-c3ccccc3C(N)=O)c(F)c2)c1O [Example 402, 2′-fluoro-4′-({6-hydroxy-1-[(1R)-2-methoxy-1-phenylethyl]-4-oxo-2-[(propan-2-yloxy)methyl]-1,4-dihydropyrimidin-5-yl}sulfonyl)-[1,1′-biphenyl]-2-carboxamide]
Cc1cnccc1-c1ccc(S(=O)(=O)c2c(O)n([C@H](c3cccc(C#N)c3)C3CC3)c(COC(C)C)nc2=O)cc1 [Example 415, 3-[(S)-cyclopropyl({6-hydroxy-5-[4-(3-methylpyridin-4-yl)benzenesulfonyl]-4-oxo-2-[(propan-2-yloxy)methyl]-1,4-dihydropyrimidin-1-yl})methyl]benzonitrile]
CCCCc1nc(=O)c(S(=O)(=O)c2ccc(-c3ccccc3C(N)=O)cn2)c(O)n1[C@@H](CC)c1cccc(C#N)c1 [Example 467, 2-[6-({2-butyl-1-[(1S)-1-(3-cyanophenyl)propyl]-6-hydroxy-4-oxo-1,4-dihydropyrimidin-5-yl}sulfonyl)pyridin-3-yl]benzamide]
CCCCc1nc(=O)c(S(=O)(=O)c2ccc(-c3ccncc3C)cc2)c(O)n1C(c1cccc(C#N)c1)C1CC1 (stereo not drawn) [Example 462, 3-({2-butyl-6-hydroxy-5-[4-(3-methylpyridin-4-yl)benzenesulfonyl]-4-oxo-1,4-dihydropyrimidin-1-yl}(cyclopropyl)methyl) benzonitrile]
CCCCc1nc(=O)c(S(=O)(=O)c2ccc(-c3ccccc3C#N)cc2)c(O)n1[C@@H](CC)c1cccc(C#N)c1 [Example 466, 4′-({2-butyl-1-[(1S)-1-(3-cyanophenyl)propyl]-6-hydroxy-4-oxo-1,4-dihydropyrimidin-5-yl}sulfonyl)-[1,1′-biphenyl]-2-carbonitrile]
COC[C@@H](c1cc(F)cc(F)c1)n1c(COC(C)C)nc(=O)c(S(=O)(=O)c2ccc(-c3ccc(F)nc3C)cc2)c1O [Example 380, 1-[(1R)-1-(3,5-difluorophenyl)-2-methoxyethyl]-5-[4-(6-fluoro-2-methylpyridin-3-yl)benzenesulfonyl]-6-hydroxy-2-[(propan-2-yloxy)methyl]-1,4-dihydropyrimidin-4-one]
CC[C@@H](c1cccc(C#N)c1)n1c(COC(C)C)nc(=O)c(S(=O)(=O)c2ccc(Br)cc2)c1O [Example 369, 3-[(1S)-1-[5-(4-bromobenzenesulfonyl)-6-hydroxy-4-oxo-2-[(propan-2-yloxy)methyl]-1,4-dihydropyrimidin-1-yl]propyl]benzonitrile]
CCCCc1nc(=O)c(S(=O)(=O)c2ccc(-c3cccnc3C(N)=O)cc2)c(O)n1[C@@H](CC)c1cccc(C#N)c1 [Example 509, 3-[4-({2-butyl-1-[(1S)-1-(3-cyanophenyl)propyl]-6-hydroxy-4-oxo-1,4-dihydropyrimidin-5-yl}sulfonyl)phenyl] pyridine-2-carboxamide]
CCCCc1nc(=O)c(S(=O)(=O)c2ccc(-c3ccnc(F)c3C)cc2)c(O)n1[C@@H](CC)c1cc(F)cc(F)c1 [Example 446, 2-butyl-1-[(1S)-1-(3,5-difluorophenyl)propyl]-5-[4-(2-fluoro-3-methylpyridin-4-yl)benzenesulfonyl]-6-hydroxy-1,4-dihydropyrimidin-4-one]

same assay, conditions: human APJ, cAMP accumulation; read-out: Human APJ cAMP EC50 Potency range

pEC50, 8.00 to 11.00:
CCCCc1nc(=O)c(S(=O)(=O)c2ccc(C3CC3)cc2)c(O)n1[C@@H](CC)c1cccc(C#N)c1 [Example 348, 3-[(1S)-1-[2-butyl-5-(4-cyclopropylbenzene-sulfonyl)-6-hydroxy-4-oxo-1,4-dihydropyrimidin-1-yl]propyl]benzonitrile]
CCOCc1nc(=O)c(S(=O)(=O)c2ccc(-c3ccc(F)nc3C)c(F)c2)c(O)n1[C@@H](COC)c1cccc(C#N)c1 [Example 344, 3-[(1R)-1-[2-(ethoxymethyl)-5-[3-fluoro-4-(6-fluoro-2-methylpyridin-3-yl)benzenesulfonyl]-6-hydroxy-4-oxo-1,4-dihydropyrimidin-1-yl]-2-methoxyethyl] benzonitrile]
CCCCc1nc(=O)c(S(=O)(=O)c2ccc(-c3ccnc(F)c3C)cc2)c(O)n1[C@@H](C)c1ccccc1OC [Example 239, 2-butyl-5-[4-(2-fluoro-3-methylpyridin-4-yl)benzenesulfonyl]-6-hydroxy-1-[(1S)-1-(2-methoxyphenyl)ethyl]-1,4-dihydropyrimidin-4-one]
Cc1nc(F)ccc1-c1ccc(S(=O)(=O)c2c(O)n([C@H]3CCc4ccccc43)c(COC(C)C)nc2=O)cc1 [Example 320, 1-[(1S)-2,3-dihydro-1H-inden-1-yl]-5-[4-(6-fluoro-2-methylpyridin-3-yl)benzenesulfonyl]-6-hydroxy-2-[(propan-2-yloxy)methyl]-1,4-dihydropyrimidin-4-one]
CC[C@@H](c1ccccc1)n1c(COC(C)C)nc(=O)c(S(=O)(=O)c2ccc(-c3ccncc3C)cc2)c1O [Example 314, 6-hydroxy-5-[4-(3-methylpyridin-4-yl)benzenesulfonyl]-1-[(1S)-1-phenylpropyl]-2-[(propan-2-yloxy)methyl]-1,4-dihydropyrimidin-4-one]
CCCCc1nc(=O)c(S(=O)(=O)c2ccc(-c3ccnc(F)c3C)cc2)c(O)n1[C@@H](C)c1ccc(OC)cc1 [Example 244, 2-butyl-5-[4-(2-fluoro-3-methylpyridin-4-yl)benzenesulfonyl]-6-hydroxy-1-[(1S)-1-(4-methoxyphenyl)ethyl]-1,4-dihydropyrimidin-4-one]
CCCCc1nc(=O)c(S(=O)(=O)c2ccc(-c3ccncc3C)cc2)c(O)n1[C@H](CC)c1cccc2c1OCO2 [Example 259, 1-[(1R)-1-(2H-1,3-benzodioxol-4-yl)propyl]-2-butyl-6-hydroxy-5-[4-(3-methylpyridin-4-yl)benzenesulfonyl]-1,4-dihydropyrimidin-4-one]
CCCCc1nc(=O)c(S(=O)(=O)c2ccc(-c3ccncc3C)cc2)c(O)n1[C@@H](COC)c1cccc(C#N)c1 [Example 251, 3-[(1R)-1-{2-butyl-6-hydroxy-5-[4-[3-methylpyridin-4-yl)benzenesulfonyl]-4-oxo-1,4-dihydropyrimidin-1-yl}-2-methoxyethyl] benzonitrile]
COC[C@@H](c1ccccc1)n1c(C2CCCO2)nc(=O)c(S(=O)(=O)c2ccc(-c3ccncc3C)cc2)c1O (single isomer, unassigned) [Example 350]

same assay, conditions: human APJ, intracellular cAMP accumulation; read-out: Human APJ cAMP EC50 Potency range

pEC50, 8.00 to 11.00:
CCCCc1nc(=O)c(S(=O)(=O)c2ccc(-c3cccc(OCOC)c3)cc2)c(O)n1-c1c(OC)cccc1OC [Example 45, 2-butyl-1-(2,6-dimethoxyphenyl)-6-hydroxy-5-{4-[3-(methoxymethoxy)phe-nyl]benzenesulfonyl}-1,4-dihydropyrimidin-4-one]
CCCCc1nc(=O)c(S(=O)(=O)c2ccc(-c3ccncc3C)cc2)c(O)n1[C@@H](CC)c1cccc(Cl)c1 [Example 192, 2-butyl-1-[(1S)-1-(3-chlorophenyl)propyl]-6-hydroxy-5-[4-(3-methylpyridin-4-yl)benzenesulfonyl]-1,4-dihydropyrimidin-4-one]
CCCCc1nc(=O)c(S(=O)(=O)c2ccc(-c3cncc(C)c3)cc2)c(O)n1[C@@H](COC)c1ccccc1 [Example 151, 2-butyl-6-hydroxy-1-[(1R)-2-methoxy-1-phenylethyl]-5-[4-(5-methylpyridin-3-yl)benzenesulfonyl]-1,4-dihydropyrimidin-4-one]
CCCCc1nc(=O)c(S(=O)(=O)c2ccc(-c3ccc(C4CC4)nc3)cc2)c(O)n1-c1c(OC)cccc1OC [Example 41, 2-butyl-5-[4-(6-cyclopropylpyridin-3-yl)benzenesulfonyl]-1-(2,6-dimethoxyphenyl)-6-hydroxy-1,4-dihydropyrimidin-4-one]
CCCCc1nc(=O)c(S(=O)(=O)c2ccc(C)cc2)c(O)n1-c1c(OC)cccc1OC [Example 62, 2-butyl-1-(2,6-dimethoxyphenyl)-6-hydroxy-5-(4-methylbenzenesulfonyl)-1,4-dihydropyrimidin-4-one]
CCCCc1nc(=O)c(S(=O)(=O)c2ccc(-c3ccc(F)c(F)c3)cc2)c(O)n1-c1c(OC)cccc1OC [Example 58, 2-butyl-5-[4-(3,4-difluorophenyl)benzenesulfonyl]-1-(2,6-dimethoxyphenyl)-6-hydroxy-1,4-dihydropyrimidin-4-one]
